This is an account of results in patent publication US9394260B2, “Pyrimidinone carboxamide inhibitors of endothelial lipase” (BRISTOL-MYERS SQUIBB COMPANY, priority 2012, dated 2016).

The target of the experiment is T1, endothelial lipase (EL) (Homo sapiens, UniProt Q9Y5X9).
T1 construct: transformed by RAGE technology (Athersys) to overexpress endogenous EL; endogenous in cells; conditioned medium used as the enzyme source
T1 sequence (Q9Y5X9 21-500): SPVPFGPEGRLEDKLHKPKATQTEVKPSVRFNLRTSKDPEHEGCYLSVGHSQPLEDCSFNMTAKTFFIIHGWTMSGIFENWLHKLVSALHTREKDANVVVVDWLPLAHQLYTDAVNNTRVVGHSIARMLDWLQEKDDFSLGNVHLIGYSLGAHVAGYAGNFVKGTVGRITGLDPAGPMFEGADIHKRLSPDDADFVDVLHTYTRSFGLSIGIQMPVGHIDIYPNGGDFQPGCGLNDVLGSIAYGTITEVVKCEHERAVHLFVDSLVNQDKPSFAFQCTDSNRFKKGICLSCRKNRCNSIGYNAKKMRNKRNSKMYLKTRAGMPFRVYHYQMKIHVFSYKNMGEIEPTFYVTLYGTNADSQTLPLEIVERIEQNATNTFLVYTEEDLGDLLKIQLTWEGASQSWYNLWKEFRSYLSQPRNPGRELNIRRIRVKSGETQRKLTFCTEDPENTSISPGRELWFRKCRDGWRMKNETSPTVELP
Kind of experiment: Endothelial lipase (EL) enzymatic assay with fluorescent substrate A10070 in DMPG vesicles. Type of experiment: biochemical. The following applies: conditioned media from HT-1080 cells overexpressing endogenous EL, 20 min preincubation at 37° C. Here is the method: Endothelial lipase activity was measured using a fluorescent substrate, A10070, (Invitrogen, CA) doped into an artificial vesicle containing DMPG (Avanti Polar Lipids) as the excipient. Vesicles were prepared by combining 285 μL of 1 mM DMPG in a 1:1 mixture of MeOH and CHCl3 with 15 μL of 1 mM A10070 in a 1:1 mixture of MeOH and CHCl3. The mixture was dried under nitrogen and resuspended in 150 μL of 50 mM HEPES pH 8.0 buffer containing 100 mM NaCl and 0.2 mM EDTA. The sample was allowed to sit at rt for 15 min and then was sonicated 3×4 mins on ice with a Branson Sonicator using duty cycle 1. This preparation provides vesicles with a mole fraction of 0.05 for the FRET substrate.
The enzymatic assay was measured using white, opaque 96-well half area plates. Each well contained 60 μL of assay buffer (50 mM HEPES pH 8.0, 50 mM NaCl and 1 mM CaCl2) and 2 ul of a DMSO solution containing compound of interest. Conditioned media obtained from HT-1080 cells, which were transformed by RAGE technology (Athersys) to overexpress endogenous EL, was added and the reaction was allowed to incubate for 20 min at 37° C. with gentle agitation. The reaction was started by the addition of 20 μL of a 1:4 dilution of vesicles. The final total reaction volume was 100 μL. The reaction rates were measured on a Gemini plate reader with an excitation wavelength of 488 nm and a emission of 530 nm. Readings were taken every 20 seconds for 10 min with agitation between each reading. The slope of the linear portion of the readout was used to calculate the rate of the reaction.
The exemplified examples disclosed in the present invention were tested in the EL assay described above and found having EL inhibitory activity. A range of EL IC50 values of ≦10 μM (10000 nM) was observed.
Usually IC50 stands for the concentration at which inhibition is half-maximal. A higher IC50 goes with a need for much substance. On to `C[C@H](CCc1cccc(C(F)(F)F)c1)NC(=O)c1[nH]c(=O)[nH]c(=O)c1N` [Example 1, (R)-5-Amino-2,6-dioxo-N-(4-(3-(trifluoromethyl)phenyl)butan-2-yl)-1,2,3,6-tetrahydropyrimidine-4-carboxamide], for which the IC50 turned out to be 80 nM.
`Nc1c(C(=O)NCCCc2ccc(Cl)c(Cl)c2)[nH]c(=O)[nH]c1=O` [Example 2, 5-amino-N-(3-(3,4-dichlorophenyl)propyl)-2,6-dioxo-1,2,3,6-tetrahydropyrimidine-4-carboxamide] returned an IC50 of 149 nM. This IC50 lies about 1.9-fold higher than the previous one.
Turning to `C[C@@H](NC(=O)c1[nH]c(=O)[nH]c(=O)c1N)c1ccc2ccccc2c1` [Example 14, (R)-5-amino-N-(1-(naphthalen-2-yl)ethyl)-2,6-dioxo-1,2,3,6-tetrahydropyrimidine-4-carboxamide], the IC50 is 7510 nM.
The value for `CC(CNC(=O)c1[nH]c(=O)[nH]c(=O)c1N)Oc1ccc(F)cc1` (centres unmarked) [Example 15, 5-amino-N-(2-(4-fluorophenoxy)propyl)-2,6-dioxo-1,2,3,6-tetrahydropyrimidine-4-carboxamide] was 9930 nM; that for `Nc1c(C(=O)NCc2cccc(-c3ccc(F)cc3)c2)[nH]c(=O)[nH]c1=O` [Example 25, 5-amino-N-((4′-fluorobiphenyl-3-yl)methyl)-2,6-dioxo-1,2,3,6-tetrahydropyrimidine-4-carboxamide] was 4250 nM; that for `Nc1c(C(=O)NCc2cccc(-n3cnc4ccccc43)c2)[nH]c(=O)[nH]c1=O` [Example 28, N-(3-(1H-benzo[d]imidazol-1-yl)benzyl)-5-amino-2,6-dioxo-1,2,3,6-tetrahydropyrimidine-4-carboxamide] was 2200 nM.
On to `Nc1c(C(=O)NC[C@H]2C[C@@H]2c2ccc(F)cc2)[nH]c(=O)[nH]c1=O` [Example 29, 5-amino-N-(((1S,2S)-2-(4-fluorophenyl)cyclopropyl)methyl)-2,6-dioxo-1,2,3,6-tetrahydropyrimidine-4-carboxamide], for which the half-maximal inhibitory concentration (IC50) was found to be 7400 nM.
As for `Nc1c(C(=O)NCc2c[nH]nc2-c2ccccc2)[nH]c(=O)[nH]c1=O` [Example 30, 5-amino-2,6-dioxo-N-((3-phenyl-1H-pyrazol-4-yl)methyl)-1,2,3,6-tetrahydropyrimidine-4-carboxamide], the figure is 612 nM; as for `Nc1c(C(=O)NCc2ccc(Oc3ccccc3)cc2)[nH]c(=O)[nH]c1=O` [Example 32, 5-amino-2,6-dioxo-N-(4-phenoxybenzyl)-1,2,3,6-tetrahydropyrimidine-4-carboxamide], 703 nM.
As to `CC(C)(C)OC(=O)N1CCN(c2cccc(CNC(=O)c3[nH]c(=O)[nH]c(=O)c3N)c2)CC1` [Example 33, tert-butyl 4-(3-((5-amino-2,6-dioxo-1,2,3,6-tetrahydro-pyrimidine-4-carboxamido)methyl)phenyl)piperazine-1-carboxylate], half-maximal inhibition (IC50) required 266 nM. Against the preceding compound, the IC50 is about 2.6-fold lower.
As for `Nc1c(C(=O)NCC2CCN(S(=O)(=O)c3ccc(Cl)c(Cl)c3)CC2)[nH]c(=O)[nH]c1=O` [Example 37, 5-amino-N-((1-(3,4-dichloro-phenylsulfonyl)piperidin-4-yl)methyl)-2,6-dioxo-1,2,3,6-tetrahydropyrimidine-4-carboxamide], the figure is 3170 nM; as for `Nc1c(C(=O)NCC2CCN(C(=O)c3ccccc3)C2)[nH]c(=O)[nH]c1=O` (centres unmarked) [Example 44, 5-amino-N-((1-benzoylpyrrolidin-3-yl)methyl)-2,6-dioxo-1,2,3,6-tetrahydropyrimidine-4-carboxamide], 3070 nM.
As for `COc1cc(C)c(OC)c2c1CC(CNC(=O)c1[nH]c(=O)[nH]c(=O)c1N)CC2` (centres unmarked) [Example 45, 5-amino-N-((5,8-dimethoxy-6-methyl-1,2,3,4-tetra-hydronaphthalen-2-yl)methyl)-2,6-dioxo-1,2,3,6-tetrahydropyrimidine-4-carboxamide], the figure is 78 nM; as for `Nc1c(C(=O)NCC2Cc3ccccc3C(c3ccccc3)C2)[nH]c(=O)[nH]c1=O` (centres unmarked) [Example 46, 5-amino-2,6-dioxo-N-((4-phenyl-1,2,3,4-tetrahydronaphthalen-2-yl)methyl)-1,2,3,6-tetrahydropyrimidine-4-carboxamide], 207 nM; as for `Nc1c(C(=O)NCC2CCc3nn(Cc4ccccc4)cc3C2)[nH]c(=O)[nH]c1=O` (centres unmarked) [Example 50, 5-amino-N-((2-benzyl-4,5,6,7-tetrahydro-2H-indazol-5-yl)methyl)-2,6-dioxo-1,2,3,6-tetrahydropyrimidine-4-carboxamide], 2480 nM.
As for `C[C@H](COc1c(Cl)cccc1Cl)NC(=O)c1[nH]c(=O)[nH]c(=O)c1N` [Example 54, (R)-5-amino-N-(1-(2,6-dichloro-phenoxy)propan-2-yl)-2,6-dioxo-1,2,3,6-tetra-hydropyrimidine-4-carboxamide], the figure is 11 nM; as for `C[C@H](COc1ccc(Cl)c2c1CCC2)NC(=O)c1[nH]c(=O)[nH]c(=O)c1N` [Example 65, (R)-5-amino-N-(1-(7-chloro-2,3-dihydro-1H-inden-4-yloxy)propan-2-yl)-2,6-dioxo-1,2,3,6-tetrahydropyrimidine-4-carboxamide], 223 nM; as for `C[C@H](COc1ccc(Cl)cc1F)NC(=O)c1[nH]c(=O)[nH]c(=O)c1N` [Example 72, (R)-5-amino-N-(1-(4-chloro-2-fluoro-phenoxy)propan-2-yl)-2,6-dioxo-1,2,3,6-tetrahydropyrimidine-4-carboxamide], 1390 nM.
`Cc1nc2cc(OC[C@@H](C)NC(=O)c3[nH]c(=O)[nH]c(=O)c3N)ccc2s1` [Example 84, (R)-5-amino-N-(1-(2-methyl-benzo[d]thiazol-5-yloxy)propan-2-yl)-2,6-dioxo-1,2,3,6-tetrahydropyrimidine-4-carboxamide] showed a concentration for half-maximal inhibition (IC50) of 2000 nM.
The value for `C[C@H](COc1ccc(Cl)cc1C(=O)c1ccccc1)NC(=O)c1[nH]c(=O)[nH]c(=O)c1N` [Example 88, (R)-5-amino-N-(1-(2-benzoyl-4-chlorophenoxy)propan-2-yl)-2,6-dioxo-1,2,3,6-tetrahydropyrimidine-4-carboxamide] was 509 nM; that for `C[C@H](COc1ccc(S(C)(=O)=O)cc1)NC(=O)c1[nH]c(=O)[nH]c(=O)c1N` [Example 103, (R)-5-amino-N-(1-(4-(methylsulfonyl)phenoxy)pro-pan-2-yl)-2,6-dioxo-1,2,3,6-tetrahydropyrimidine-4-carboxamide] was 559 nM.
The value for `C[C@H](COc1ccccc1-c1nnco1)NC(=O)c1[nH]c(=O)[nH]c(=O)c1N` [Example 115, (R)-N-(1-(2-(1,3,4-oxadiazol-2-yl)phenoxy)propan-2-yl)-5-amino-2,6-dioxo-1,2,3,6-tetra-hydropyrimidine-4-carboxamide] was 4990 nM; that for `C[C@H](COc1ccc2c(c1)NC(=O)CC2)NC(=O)c1[nH]c(=O)[nH]c(=O)c1N` [Example 120, (R)-5-amino-2,6-dioxo-N-(1-(2-oxo-1,2,3,4-tetrahydroquinolin-7-yloxy)propan-2-yl)-1,2,3,6-tetrahydropyrimidine-4-carboxamide] was 5400 nM.
Compound `C[C@@H](NC(=O)c1[nH]c(=O)[nH]c(=O)c1N)c1cccc(-c2ccn(Cc3ccccc3)n2)c1` [Example 136, (R)-5-amino-N-(1-(3-(1-benzyl-1H-pyrazol-3-yl)phenyl)ethyl)-2,6-dioxo-1,2,3,6-tetrahydro-pyrimidine-4-carboxamide] gave an IC50 of 20 nM.
As for `C[C@@H](NC(=O)c1[nH]c(=O)[nH]c(=O)c1N)c1cccc(-c2cnn(Cc3cccc(C(N)=O)c3)c2)c1` [Example 141, (R)-5-amino-N-(1-(3-(1-(3-carbamoylbenzyl)-1H-pyrazol-4-yl)phenyl)ethyl)-2,6-dioxo-1,2,3,6-tetrahydro-pyrimidine-4-carboxamide], the figure is 883 nM.
`C[C@@H](NC(=O)c1[nH]c(=O)[nH]c(=O)c1N)c1cc(-c2cnn(Cc3ccccc3)c2)ccc1O` [Example 143, (R)-5-amino-N-(1-(5-(1-benzyl-1H-pyrazol-4-yl)-2-hydroxyphenyl)ethyl)-2,6-dioxo-1,2,3,6-tetrahydro-pyrimidine-4-carboxamide] returned an IC50 of 6960 nM. Against the preceding compound, the IC50 is about 7.9-fold higher.
